Here are results for four compounds from paper PMC3195939 (Journal of controlled release : official journal of the …, 2011).

The test system of assay [1] is HeLa cells. In words: Uptake of endocytic markers after inhibitor treatment. In kind it is cell-based, human.
In assay [2] the test system is HeLa cells. In words: Actin filament visualization with rhodamine-phalloidin in fixed cells. In kind it is cell-based, human. The settings on record: 2 μM for 30 min at 37°C, rhodamine-phalloidin and DAPI.
Assay [3] deals with HeLa cells. The assay can be described thus: Cellular uptake by live cell confocal fluorescence microscopy. In kind it is cell-based, human.
A further assay relates to cell membranes. The settings on record: studies in fixed cells; cited from earlier work.

`CCN(c1nc(N)c(C(=O)NC(=N)N)nc1Cl)C(C)C` [EIPA, 5-(N-ethyl-N-isopropyl)amiloride]: in the assay on HeLa cells [1] (50 μM EIPA), the “Effect on uptake of 10K-Dex” value is “significantly inhibited” and the “Effect on uptake of CTX-B” value is “significantly inhibit”. Also, the “Effect on uptake of EGF” value in the assay on HeLa cells [1] (50 μM EIPA, data not shown) is on record as “no or little effect”.

As for `C/C1=C/C(=O)O[C@@H]2C[C@@H](CC[C@H](C)/C=C\CC1)O[C@@](O)([C@@H]1CSC(=O)N1)C2` [Lat B, Latrunculin B], the “Effect on actin filament network” value in the assay on HeLa cells [2] is on record as “total disruption of the actin filament network”. For the same compound, the “Effect on uptake of 10K-Dex” value in the assay with HeLa cells [1] (2 μM Lat B, data not shown) is “did not significantly inhibit”.

Take “AF488-MCoTI-I: MCoTI-I site-specifically labeled with AlexaFluor488 through the ε-amino of residue Lys4 in loop 1 (SGSDGGVCPKILQRCRRDSDCPGACICRGNGYCG; not fully specified; AlexaFluor488 on Lys4; UniProt P82408 1-34, looked up)”: in the assay on HeLa cells [3] (25 μM, 4°C, live HeLa cells), the “Surface binding at 4°C” value was “no significant surface binding”. In addition, the “Internalization at 4°C” value in the assay on HeLa cells [3] (25 μM, 1 h incubation at 4°C, completely reversible on 1 h at 37°C) is “totally inhibited”. Moreover, the “Internalization (intracellular distribution)” value in the assay with HeLa cells [3] (25 μM, 1 h incubation at 37°C, serum-free DMEM, live HeLa cells, confocal fluorescence) is “clearly visible within perinuclear punctate spots inside the cells”. In the assay with HeLa cells [3] (50 μM EIPA for 30 min at 37°C before 25 μM cyclotide, 1 h uptake), the “Inhibition of cellular uptake by EIPA” value was “≈ 80%”.

As for kalata B1, the “Affinity for proteins or lipids in cell membranes” value in the assay with cell membranes is “shows membrane affinity”.
